Experimental data reported in patent publication US9447157B2, “Nitration shielding peptides and methods of use thereof” (Augusta University Research Institute, Inc., priority 2013, dated 2016).

Target: T1, PKG-1α (Homo sapiens, UniProt Q13976)
T1 construct: transfected with an expression plasmid containing a full length WT-PKG-1α cDNA; made in house; host or cells: HEK-293T (methods); the results paragraph b527 says PASMC
T1 sequence (Q13976 2-671): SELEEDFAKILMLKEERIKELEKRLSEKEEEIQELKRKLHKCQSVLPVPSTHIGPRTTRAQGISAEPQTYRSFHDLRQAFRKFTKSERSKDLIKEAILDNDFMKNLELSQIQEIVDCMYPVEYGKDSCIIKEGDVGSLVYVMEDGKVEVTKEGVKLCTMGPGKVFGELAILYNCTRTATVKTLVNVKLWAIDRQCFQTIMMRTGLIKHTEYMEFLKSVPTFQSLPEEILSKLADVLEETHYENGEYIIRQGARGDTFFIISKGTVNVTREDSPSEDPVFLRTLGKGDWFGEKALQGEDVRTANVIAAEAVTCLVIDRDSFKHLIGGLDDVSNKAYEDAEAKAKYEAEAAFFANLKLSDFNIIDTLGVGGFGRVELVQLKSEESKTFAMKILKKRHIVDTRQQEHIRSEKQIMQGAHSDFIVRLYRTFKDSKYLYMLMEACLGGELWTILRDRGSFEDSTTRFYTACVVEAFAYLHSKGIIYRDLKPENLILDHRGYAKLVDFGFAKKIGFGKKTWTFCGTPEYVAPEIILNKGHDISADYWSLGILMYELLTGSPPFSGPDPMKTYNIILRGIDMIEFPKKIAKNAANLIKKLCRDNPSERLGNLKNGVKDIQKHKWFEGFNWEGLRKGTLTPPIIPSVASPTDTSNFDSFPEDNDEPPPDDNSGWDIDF
Test: [3H]cGMP binding assay
Settings: SIN-1 500 μM 30 min
Experimental: HEK-293T cells were transiently transfected with either the WT-PKG-1α or the Y247FPKG-1α cDNA using Effectene transfection reagent (Qiagen), according to the manufacturer's instructions. Briefly, the cells were split the day before the transfection to low cell densities (25%) and were transfected 24 h later. After 48 h of transfection, the cells were incubated in DMEM serum free media containing 1% FBS and antibiotics for 4 h and then treated with or without SIN-1 (500 μM), for 30 min. This method produced an approximate 70% transfection efficiency of HEK-293T cells, as measured using green fluorescent protein vectors. […]
The batches of supernatant were pooled, and 2 μg of anti-PKG-1α antibody per mg of protein were added to the extract and rocked at 4° C. […] After 15 min of agitation at 4° C., the beads were pelleted by centrifugation, and the supernatant containing the PKG-1α protein was collected, quantified using Bradford reagent, and stored at −80° C.
To assay the binding of cGMP to WT- and Y247F-PKG-1α the enzymes were saturated with cGMP by incubating 50 μl aliquots of the diluted PKG constructs for 60 min at room temperature with 50 μl of [^3H]cGMP and 150 μl of cGMP-binding assay mixture (25 mM K2HPO4, 25 mM KH2PO4, 1 mM EDTA, pH 6.8, 2M NaCl, 200 μM 3-isobutyl-1-methylxanthine). […] The dissociation constant (Kd) values were determined using GraphPad Prism graphics.

Maximal [3H]cGMP binding to WT-PKG-1α: significantly attenuated
Substance: 3-morpholinosydnonimine N-ethylcarbamide [SIN-1]
